Assay results taken from ChEMBL document CHEMBL1201862, “PubChem BioAssay data set” (2004).
Activity calls are given as the source filed them.

What was measured:
Mu-type opioid receptor = Mu-type opioid receptor (Homo sapiens, UniProt P35372); test: (§1) Counterscreen for agonists of heterodimerization of the mu 1 (OPRM1) and delta 1 (OPRD1) opioid receptors: Luminescence-based cell-based high throughput dose response assay to identify agonists of OPRM1 homodimerization.; assay type: functional
[1] = target: Delta-type opioid receptor (Homo sapiens, UniProt P41143); test: as §1, with “of OPRD1” for “of OPRM1”, “homodimerization. [Related pubchem assays (depositor defined):AID504326, AID504355, AID504692, AID504904, AID504905]” for “homodimerization.”; assay type: functional
[2] = target: 5-hydroxytryptamine receptor 5A (Homo sapiens, UniProt P47898); test: Counterscreen for agonists of OPRM1-OPRD1 heterodimerization: luminescence-based cell-based high throughput dose response assay to identify agonists of 5-hydroxytryptamine (serotonin) 5A receptor (HTR5A). [Related pubchem assays (depositor defined):AID504326, AID504355, AID504692, AID504904, AID504905]; assay type: functional
[3] = target: T1, Short transient receptor potential channel 4 (Mus musculus, UniProt Q9QUQ5); test: mouse TRPC4 channel activators, dose response, cell-based, HEK293 TRPC4/mu-opioid, Fluo-4 calcium (AID 434937); assay type: functional
T1 sequence (Q9QUQ5 whole entry): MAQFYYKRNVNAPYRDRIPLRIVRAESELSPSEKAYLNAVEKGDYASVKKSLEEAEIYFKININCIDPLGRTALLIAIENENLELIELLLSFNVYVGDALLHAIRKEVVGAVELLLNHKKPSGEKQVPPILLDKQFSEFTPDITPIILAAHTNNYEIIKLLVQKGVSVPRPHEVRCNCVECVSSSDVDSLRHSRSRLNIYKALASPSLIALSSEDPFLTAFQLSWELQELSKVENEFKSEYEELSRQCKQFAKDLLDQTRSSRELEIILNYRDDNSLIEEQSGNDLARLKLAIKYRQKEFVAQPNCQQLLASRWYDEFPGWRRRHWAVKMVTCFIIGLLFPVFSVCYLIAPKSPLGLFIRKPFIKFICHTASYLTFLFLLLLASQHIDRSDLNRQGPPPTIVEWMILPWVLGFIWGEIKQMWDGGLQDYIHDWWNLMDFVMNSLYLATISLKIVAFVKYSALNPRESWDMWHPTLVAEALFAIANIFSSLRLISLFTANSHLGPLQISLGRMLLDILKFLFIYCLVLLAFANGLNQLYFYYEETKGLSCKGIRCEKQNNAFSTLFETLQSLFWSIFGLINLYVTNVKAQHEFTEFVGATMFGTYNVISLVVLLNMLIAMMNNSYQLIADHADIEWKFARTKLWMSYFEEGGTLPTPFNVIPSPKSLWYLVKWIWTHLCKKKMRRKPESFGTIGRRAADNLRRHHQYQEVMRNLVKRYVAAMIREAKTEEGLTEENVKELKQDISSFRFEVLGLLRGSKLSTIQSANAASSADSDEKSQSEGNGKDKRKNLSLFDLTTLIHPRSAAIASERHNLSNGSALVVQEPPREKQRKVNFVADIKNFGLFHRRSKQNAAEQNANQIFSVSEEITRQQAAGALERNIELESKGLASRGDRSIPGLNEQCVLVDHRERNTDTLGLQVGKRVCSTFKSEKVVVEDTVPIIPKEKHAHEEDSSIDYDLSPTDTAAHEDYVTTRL

Trypsin = Trypsin (Sus scrofa, UniProt P00761); test: porcine trypsin inhibitors, dose response, selectivity assay for Rce1 protease inhibitor project, biochemical, quenched peptide fluorescence, cherry-pick (AID 488789)
CAAX prenyl protease 2 [4] = target: T2, CAAX prenyl protease 2 (Saccharomyces cerevisiae S288c, UniProt Q03530); assay type: biochemical
T2 sequence (Q03530 whole entry): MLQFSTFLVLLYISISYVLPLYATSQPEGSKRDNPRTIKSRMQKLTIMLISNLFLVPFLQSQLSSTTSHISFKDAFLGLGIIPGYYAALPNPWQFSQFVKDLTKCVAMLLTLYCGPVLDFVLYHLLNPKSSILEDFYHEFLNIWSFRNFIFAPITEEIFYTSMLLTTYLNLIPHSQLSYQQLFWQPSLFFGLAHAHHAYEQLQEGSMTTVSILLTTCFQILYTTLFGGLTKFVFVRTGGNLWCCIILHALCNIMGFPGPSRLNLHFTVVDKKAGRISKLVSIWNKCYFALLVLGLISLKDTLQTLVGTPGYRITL

CAAX prenyl protease 2 [5] = target: CAAX prenyl protease 2 (Homo sapiens, UniProt Q9Y256); test: human Rce1 protease inhibitors, dose response, biochemical, yeast membranes, quenched-peptide fluorescence, cherry-pick (AID 588849)
H9c2 = test: cells; assay type: functional, cell-based; conditions: Rattus norvegicus, H9c2, Myocardium;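 also: confirmatory concentration-response retest of ultra-high-throughput screening hits for modulation of myocardial damage; cell death induced by hydrogen peroxide oxidative stress; compound pretreatment for 60 min then peroxide exposure for 2 h; potency is for protecting the cells against peroxide damage rather than for killing them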
Escherichia coli [6] = test: microbe, parasite or virus in culture
Escherichia coli [7] = test: microbe, parasite or virus in culture; remark: listed apart in the source

Mu-type opioid receptor, sequence (P35372 whole entry): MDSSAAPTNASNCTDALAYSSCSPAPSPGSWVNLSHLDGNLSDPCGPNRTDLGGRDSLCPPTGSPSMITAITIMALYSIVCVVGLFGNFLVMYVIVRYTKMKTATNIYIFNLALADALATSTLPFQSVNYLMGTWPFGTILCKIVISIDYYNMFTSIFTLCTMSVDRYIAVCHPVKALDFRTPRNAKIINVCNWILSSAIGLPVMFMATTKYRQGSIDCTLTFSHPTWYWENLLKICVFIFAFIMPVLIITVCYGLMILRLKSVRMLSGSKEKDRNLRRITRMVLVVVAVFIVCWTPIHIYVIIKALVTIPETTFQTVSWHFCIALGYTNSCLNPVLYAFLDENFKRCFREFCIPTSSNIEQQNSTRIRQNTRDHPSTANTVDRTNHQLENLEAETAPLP
Delta-type opioid receptor, sequence (P41143 whole entry): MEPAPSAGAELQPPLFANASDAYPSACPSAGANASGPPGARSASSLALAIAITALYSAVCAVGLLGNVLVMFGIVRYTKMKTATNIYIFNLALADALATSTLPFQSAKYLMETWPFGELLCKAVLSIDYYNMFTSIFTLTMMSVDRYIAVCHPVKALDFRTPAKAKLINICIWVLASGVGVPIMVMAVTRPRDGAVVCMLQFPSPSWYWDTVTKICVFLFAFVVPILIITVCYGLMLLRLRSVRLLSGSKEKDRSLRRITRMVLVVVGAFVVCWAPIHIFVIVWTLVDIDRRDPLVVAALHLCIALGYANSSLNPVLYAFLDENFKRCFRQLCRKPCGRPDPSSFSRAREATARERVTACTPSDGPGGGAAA
5-hydroxytryptamine receptor 5A, sequence (P47898 whole entry): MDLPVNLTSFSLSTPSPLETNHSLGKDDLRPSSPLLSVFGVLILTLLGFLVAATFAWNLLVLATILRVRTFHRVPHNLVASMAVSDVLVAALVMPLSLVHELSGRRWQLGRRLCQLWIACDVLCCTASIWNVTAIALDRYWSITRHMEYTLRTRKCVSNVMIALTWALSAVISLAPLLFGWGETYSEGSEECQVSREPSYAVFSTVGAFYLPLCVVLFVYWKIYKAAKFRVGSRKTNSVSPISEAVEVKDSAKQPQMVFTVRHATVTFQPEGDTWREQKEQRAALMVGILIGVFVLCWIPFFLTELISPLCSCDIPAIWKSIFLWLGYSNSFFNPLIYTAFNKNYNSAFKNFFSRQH
Trypsin, sequence (P00761 whole entry): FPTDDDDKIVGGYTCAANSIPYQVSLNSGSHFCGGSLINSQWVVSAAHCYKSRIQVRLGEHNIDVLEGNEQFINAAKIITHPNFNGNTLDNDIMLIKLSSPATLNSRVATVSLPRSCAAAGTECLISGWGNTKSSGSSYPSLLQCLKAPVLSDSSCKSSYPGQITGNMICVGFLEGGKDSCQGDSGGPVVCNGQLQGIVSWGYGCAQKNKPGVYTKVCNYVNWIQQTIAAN
CAAX prenyl protease 2 (Homo sapiens, UniProt Q9Y256), sequence (Q9Y256 whole entry): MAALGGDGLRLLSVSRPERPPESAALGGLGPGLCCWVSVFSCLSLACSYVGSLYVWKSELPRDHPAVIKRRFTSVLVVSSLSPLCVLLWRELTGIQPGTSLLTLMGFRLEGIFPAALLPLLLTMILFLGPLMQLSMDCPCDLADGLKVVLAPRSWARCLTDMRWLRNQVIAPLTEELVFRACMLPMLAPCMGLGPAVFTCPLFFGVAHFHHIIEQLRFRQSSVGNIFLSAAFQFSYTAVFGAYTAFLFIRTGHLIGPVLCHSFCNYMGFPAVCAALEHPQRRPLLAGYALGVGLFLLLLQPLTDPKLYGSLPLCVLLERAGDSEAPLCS

Row | EC50 (Mu-type opioid receptor) | EC50 [1] | EC50 [2] | EC50 [3] | Structure (SMILES) | AC50 (Escherichia coli [6]) | also measured
1 | 4.15 µM (active) | 50 µM (inactive) | > 92.5 µM (inactive) | 0.188 µM (active) | Cc1ccc(C)c(NC(S)=NCC(c2ccccc2)N(C)C)c1 (stereo not given) |  | 
2 |  |  |  |  | CN1c2ccccc2-c2nc3ccccc3n2C1c1cccs1 (stereo not given) |  | AC50 (Trypsin): 0.989 µM (active); AC50 (CAAX prenyl protease 2 [4]): 4.28 µM (active); AC50 (CAAX prenyl protease 2 [5]): 0.769 µM (active)
3 | 12.5 µM (inactive) | 74.6 µM (inactive) | > 92.5 µM (inactive) | 0.0427 µM (active) | Cc1ccccc1NC(S)=NCC(c1cccnc1)N(C)C (stereo not given) |  | 
4 |  |  |  |  | COc1cccc(-c2nn3c(-c4ccccn4)nnc3s2)c1 | 192 µM (active) | IC50 (H9c2): 16.5 µM (active)
5 |  |  |  |  | CC(C)(C)NC(=O)c1nn(Cc2ccccc2)c(=O)c2ccccc12 | 53.2 µM (active) | AC50 (Escherichia coli [7]): 29.1 µM (active)
